# Measured values: paper PMC5340827 (European Journal of Drug Metabolism and Pharmacokinetics, 2016)
# How the values were obtained:
# [1] = system: LH, FSH and 17β-estradiol in the serum; experiment: Hormonal profile; type: in vivo, rat; details: s.c. 1 µg/kg; for highest estradiol concentration, suspension form: 1 h after injection
# [2] = cited from earlier work
# [3] = Pharmacokinetics and bioavailability after single s.c. injection; details: for extent of biological availability (EBA), solution relative to suspension: (AUCsolution/AUCsuspension) × 100 %, from AUC0−∞; for presence in the plasma after injection in the form of suspension: 24 h after s.c. 6 mg/kg
"extent of biological availability (EBA), solution relative to suspension [3] [%]",presence in the plasma after injection in the form of suspension [3],"EBA of dalarelin relative to buserelin, form of solution ([3]; (AUCdalarelin solution/AUCbuserelin solution) × 100 %) [%]","EBA of dalarelin relative to buserelin, form of suspension ([3]; (AUCdalarelin suspension/AUCbuserelin suspension) × 100 %) [%]",Substance,"maximal concentration of estradiol, form of solution ([1]; solution, 30 min after injection) [pg/mL]","time of maximal concentration of estradiol, form of solution ([1]; solution) [min]","highest estradiol concentration, suspension form [1] [pg/mL]","time of highest concentration of FSH, suspension form [1] [h]",activity / relative potency in relation to natural GnRH [2]
13,detectable in the plasma even after 24 h,,,buserelin,45.7,30,21.4,4,20 times
8,detectable in the plasma even after 24 h,53,83,dalarelin,,30,24.2,2,roughly 14 times
